In patent US9790203B2, “Inhibitor compounds of phosphodiesterase type 10A” (ABBVIE DEUTSCHLAND GMBH & CO. KG, priority 2012, dated 2017):

Tests used:
PDE10A = PDE10A (Homo sapiens (Human), UniProt Q9Y233); assay: Measurement of PDE activity (HTRF cAMP kit, recombinant PDE); type: biochemical; details: recombinant PDE10, 20 nM cyclic nucleotide substrate, 60 minutes at 29 C
Description: The recombinant PDE proteins are used in in vitro enzymatic reaction for measurement of PDE activity. These recombinant proteins, including PDE10A (human, rat and mouse PDE10) and isoforms of PDEs 1, 3, 4, and 5, were purchased from commercial vendor BPS Bioscience. The enzymatic activity of PDEs was determined by cAMP measurement kit from CisBio (IBA) using HTRF technology.
The PDE enzymatic reaction was carried out in assay buffer (20 mM Tris-HCl pH7.5, 10 mM MgCl2, 0.1% bovine serum albumin) containing enzyme and substrate. […] The substrate cyclic nucleotide (cAMP or cGMP) concentration used in the assay was 20 nM for PDE10, and 100 nM for other PDEs. The inhibitory effect of compound was determined by incubating various concentration of inhibitor in the enzymatic assay. […] Next, the compound at varying concentration was mixed with PDE enzyme. The reaction was initiated by addition of cyclic nucleotide substrate, and incubated for 60 minutes at 29 C. The reaction was stopped by addition of lysis buffer from assay kit. The cAMP-d2 and anti-cAMP cryptate in the lysis buffer detected the level of cAMP left from the PDE hydrolysis reaction. […] Thus, IC50 value of inhibitor can be obtained by plotting inhibitor concentration against PDE activity at that concentration.

[1] = Microsomal half-life / microsomal clearance, rat liver microsomes; type: in vitro ADME; details: 0.5 μM test substance, 0.25 mg microsomal protein/ml, pH 7.4, 37° C.
Description: (§1) The metabolic stability of the compounds of the invention was determined in the following assay.
(§2) The test substances were incubated in a concentration of 0.5 μM as follows:
(§3) 0.5 μM test substance are preincubated together with liver microsomes from different species (from rat, human or other species) (0.25 mg of microsomal protein/ml) in 0.05 M potassium phosphate buffer of pH 7.4 in microtiter plates at 37° C. for 5 min. The reaction is started by adding NADPH (1 mg/mL). After 0, 5, 10, 15, 20 and 30 min, 50 μl aliquots are removed, and the reaction is immediately stopped and cooled with the same volume of acetonitrile. The samples are frozen until analyzed. The remaining concentration of undegraded test substance is determined by MSMS. The half-life (T1/2) is determined from the gradient of the signal of test substance/unit time plot, it being possible to calculate the half-life of the test substance, assuming first order kinetics, from the decrease in the concentration of the compound with time. The microsomal clearance (mCl) is calculated from mCl=ln 2/T1/2/(content of microsomal protein in mg/ml)×1000 [ml/min/mg] (modified from references: Di, The Society for Biomoleculur Screening, 2003, 453-462; Obach, DMD, 1999 vol 27. N 11, 1350-1359).

[2] = Microsomal half-life / microsomal clearance, human liver microsomes; type: in vitro ADME; details: 0.5 μM test substance, 0.25 mg microsomal protein/ml, pH 7.4, 37° C.
Description: as §1, §2, §3

rats [3] = details: cited from earlier work
rats [4] = details: cited from earlier work; remark: listed apart in the source
rats [5] = details: cited from earlier work; remark: listed apart in the source

PDE10A, sequence (Q9Y233 whole entry, species assumed, canonical isoform): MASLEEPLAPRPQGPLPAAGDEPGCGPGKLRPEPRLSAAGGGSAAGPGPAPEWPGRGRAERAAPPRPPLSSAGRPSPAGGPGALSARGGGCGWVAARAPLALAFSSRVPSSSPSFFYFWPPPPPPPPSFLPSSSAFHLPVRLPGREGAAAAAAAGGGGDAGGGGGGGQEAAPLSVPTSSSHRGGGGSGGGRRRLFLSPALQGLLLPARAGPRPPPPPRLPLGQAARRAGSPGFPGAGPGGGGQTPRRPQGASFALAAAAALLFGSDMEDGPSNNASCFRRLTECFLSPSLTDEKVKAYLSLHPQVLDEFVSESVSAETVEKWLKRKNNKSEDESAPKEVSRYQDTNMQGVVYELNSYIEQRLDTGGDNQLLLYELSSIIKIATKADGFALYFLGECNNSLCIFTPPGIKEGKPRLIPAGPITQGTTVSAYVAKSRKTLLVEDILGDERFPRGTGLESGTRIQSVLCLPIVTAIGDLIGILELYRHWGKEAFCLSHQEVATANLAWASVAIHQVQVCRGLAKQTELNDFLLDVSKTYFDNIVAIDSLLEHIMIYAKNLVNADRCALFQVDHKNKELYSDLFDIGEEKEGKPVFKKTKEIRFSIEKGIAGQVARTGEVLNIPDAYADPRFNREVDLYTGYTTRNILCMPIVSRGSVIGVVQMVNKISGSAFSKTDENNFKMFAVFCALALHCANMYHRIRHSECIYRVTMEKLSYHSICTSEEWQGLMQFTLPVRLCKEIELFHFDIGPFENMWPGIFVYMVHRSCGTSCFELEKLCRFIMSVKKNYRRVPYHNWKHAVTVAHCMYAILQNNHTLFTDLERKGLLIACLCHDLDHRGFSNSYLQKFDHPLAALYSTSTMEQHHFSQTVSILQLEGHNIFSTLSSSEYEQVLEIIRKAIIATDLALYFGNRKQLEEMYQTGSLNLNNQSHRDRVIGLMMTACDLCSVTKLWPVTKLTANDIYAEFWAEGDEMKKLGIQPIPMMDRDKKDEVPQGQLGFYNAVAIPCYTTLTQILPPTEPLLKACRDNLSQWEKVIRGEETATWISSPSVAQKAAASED

| IC50 (PDE10A) [µM] | Rat mCl [1] | Human mCl [2] | Structure (SMILES) | catalepsy on its own (rats [3]; papaverine alone) | cataleptic effect of the D2 receptor antagonist haloperidol (rats [3]; with haloperidol) | hyperactivity induced by PCP (rats [4]) | reduction of amphetamine-induced hyperactivity (rats [5]) |
| --- | --- | --- | --- | --- | --- | --- | --- |
| 0.2 to 0.5 | ++ (<100 μl min^−1 mg^−1) | ++ (<100 μl min^−1 mg^−1) | Cc1cccc(C#Cc2ccc(-c3nn(C)cc3-c3cccnc3)cc2)n1.O=C(O)C(F)(F)F [Example 29, 2-methyl-6-[2-[4-[1-methyl-4-(3-pyridyl)pyrazol-3-yl]phenyl]ethynyl]pyridine; 2,2,2-trifluoroacetic acid] | – | – | – | – |
| < 0.1 | + (100-220 μl min^−1 mg^−1) | ++ (<100 μl min^−1 mg^−1) | COc1cc(-c2nn(C)cc2-c2ccncc2)ccc1C#Cc1cccc(C)n1.O=C(O)C(F)(F)F [Example 32, 2-[2-[2-methoxy-4-[1-methyl-4-(4-pyridyl)pyrazol-3-yl]phenyl]ethynyl]-6-methylpyridine; 2,2,2-trifluoroacetic acid] | – | – | – | – |
| – | – | – | COc1ccc(Cc2nccc3cc(OC)c(OC)cc23)cc1OC [Papaverine, papaverine] | did not cause catalepsy on its own | potentiated the cataleptic effect | reduced hyperactivity | insignificant |
